The text below walks through data of PubChem BioAssay AID624144 (National Center for Advancing Translational Sciences (NCATS), 2012).

The subject of this data set is human plasma stability, LC-MS/MS, 48 h. As to the kind of experiment: qHTS Assay to Find Inhibitors of T. brucei phosphofructokinase: Human Plasma Stability Profiling. The settings on record: at 2 µM; hits give low values. Background: In qHTS, concentration-response curves come from the screen itself.

Regarding `O=C(Cc1ccc(Cl)c(Cl)c1)Nc1ccc(S(=O)(=O)Nc2ccon2)cc1`, the percent remaining in plasma (higher = more stable) is 100%.
